Experimental findings from patent publication US20230295182A1, “SPIRO DERIVATIVES OF ALPHA-D-GALACTOPYRANOSIDES” (Idorsia Pharmaceuticals Ltd, priority 2020, published 2023) are described below.

Molecules are shown by their SMILES.

As a reminder, the IC50 is the concentration needed to halve the response being measured.

The target of one assay is human Gal-3 (hGal-3) (Homo sapiens (Human), UniProt P17931). In words: Competitive binding assay: biotinylated hGal-3 to microplate-adsorbed asialofetuin (ASF). The note with it: Activity on hGal-3; binding to ASF-coated plates, 3 hours at 4° C.; mean values. How it is done: Evaluation of Compound Inhibitory Activity (IC50)
Sequence of human Gal-3 (hGal-3) (P17931 whole entry): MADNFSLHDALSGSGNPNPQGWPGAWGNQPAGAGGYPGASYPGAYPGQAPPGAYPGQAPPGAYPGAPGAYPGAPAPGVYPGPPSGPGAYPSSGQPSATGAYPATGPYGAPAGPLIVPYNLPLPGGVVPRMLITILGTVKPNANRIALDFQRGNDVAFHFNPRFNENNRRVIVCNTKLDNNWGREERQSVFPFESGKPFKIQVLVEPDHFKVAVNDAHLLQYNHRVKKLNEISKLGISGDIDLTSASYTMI
The inhibitory activity of compounds is determined in competitive binding assays. This spectrophotometric assay measures the binding of biotinylated human Gal-3 (hGal-3) or human Gal-1 (hGal-1), respectively, to a microplate-adsorbed glycoprotein, asialofetuin (ASF) (Proc Natl Acad Sci USA. 2013 Mar. 26; 110(13):5052-7.). Alternatively, and preferably, a human Gal-1 version in which all six cysteines are substituted by serines may be used.
Briefly, compounds are serially diluted in DMSO (working dilutions). ASF-coated 384 well plates are supplemented with 22.8 μL/well of biotinylated hGal-3 or hGal-1 in assay buffer (i.e. 300-1000 ng/mL biotinylated hGal-3 or hGal-1) to which 1.2 µL of compound working dilutions are added and mixed.
Plates are incubated for 3 hours at 4° C., then washed with cold assay buffer (3×50 uL), incubated for 1 hour with 25 μL/well of a streptavidin-peroxidase solution (diluted in assay buffer to 80 ng/mL) at 4° C., followed by further washing steps with assay buffer (3×50 uL). Finally, 25 µL/well of ABTS substrate is added.
The calculated IC50 values may fluctuate depending on the daily assay performance. Fluctuations of this kind are known to those skilled in the art. IC50 values from several measurements are given as mean values.

In a further assay the target is human Gal-1 (hGal-1) (Homo sapiens, UniProt P09382). In words: Competitive binding assay: biotinylated hGal-1 to microplate-adsorbed asialofetuin (ASF). The following applies: Activities on hGal-1; binding to ASF-coated plates, 3 hours at 4° C.; mean values; read-out: Gal-1 IC50. How it is done: Evaluation of Compound Inhibitory Activity (IC50) The inhibitory activity of compounds is determined in competitive binding assays. […] Alternatively, and preferably, a human Gal-1 version in which all six cysteines are substituted by serines may be used. Briefly, compounds are serially diluted in DMSO (working dilutions). […] Plates are incubated for 3 hours at 4° C., then washed with cold assay buffer (3×50 uL), incubated for 1 hour with 25 μL/well of a streptavidin-peroxidase solution (diluted in assay buffer to 80 ng/mL) at 4° C., followed by further washing steps with assay buffer (3×50 uL). Finally, 25 µL/well of ABTS substrate is added. […] The calculated IC50 values may fluctuate depending on the daily assay performance. Fluctuations of this kind are known to those skilled in the art. IC50 values from several measurements are given as mean values.
Sequence of human Gal-1 (hGal-1) (P09382 2-135 limits assumed): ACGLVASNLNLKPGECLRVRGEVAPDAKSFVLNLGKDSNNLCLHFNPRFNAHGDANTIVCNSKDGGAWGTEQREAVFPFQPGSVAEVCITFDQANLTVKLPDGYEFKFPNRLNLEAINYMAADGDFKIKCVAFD

As to `CO[C@@H]1[C@@H](n2cc(-c3cc(F)c(F)c(F)c3)nn2)[C@@H](O)[C@@H](CO)O[C@@H]1CC1=NOC2(CCCC2)C1` [Example 1.09, (2R,3R,4S,5R,6R)-6-((1-oxa-2-azaspiro[4.4]non-2-en-3-yl)methyl)-2-(hydroxymethyl)-5-methoxy-4-(4-(3,4,5-trifluorophenyl)-1H-1,2,3-triazol-1-yl)tetrahydro-2H-pyran-3-ol], the figures for the half-inhibitory concentration (IC50) on human Gal-3 (hGal-3) and on human Gal-1 (hGal-1) were 950 nM and 2.7 µM, respectively.
Consider `CO[C@@H]1[C@@H](n2cc(-c3cc(F)c(F)c(F)c3)nn2)[C@@H](O)[C@@H](CO)O[C@@H]1CC1=NOC2(CCC2)C1` [Example 1.10, (2R,3R,4S,5R,6R)-6-((5-oxa-6-azaspiro[3.4]oct-6-en-7-yl)methyl)-2-(hydroxymethyl)-5-methoxy-4-(4-(3,4,5-trifluorophenyl)-1H-1,2,3-triazol-1-yl)tetrahydro-2H-pyran-3-ol], for which the half-inhibitory concentration (IC50) was 620 nM on human Gal-3 (hGal-3) and 2.2 µM at human Gal-1 (hGal-1).
For `CO[C@@H]1[C@@H](n2cc(-c3cc(F)c(F)c(F)c3)nn2)[C@@H](O)[C@@H](CO)O[C@@H]1CC1=NOC2(CCC(NC(=O)OC(C)(C)C)CC2)C1` (stereo partly drawn) [Example 1.11, tert-butyl (3-(((2R,3R,4S,5R,6R)-5-hydroxy-6-(hydroxymethyl)-3-methoxy-4-(4-(3,4,5-trifluorophenyl)-1H-1,2,3-triazol-1-yl)tetrahydro-2H-pyran-2-yl)methyl)-1-oxa-2-azaspiro[4.5]dec-2-en-8-yl)carbamate], the IC50 was determined as 69 nM on human Gal-3 (hGal-3) and 1.5 µM at human Gal-1 (hGal-1).
The corresponding values for `CO[C@@H]1[C@@H](n2cc(-c3ccc(Cl)c(F)c3)nn2)[C@@H](O)[C@@H](CO)O[C@@H]1CC1=NOC2(CCCCC2)C1` [Example 1.12, (2R,3R,4S,5R,6R)-6-((1-oxa-2-azaspiro[4.5]dec-2-en-3-yl)methyl)-4-(4-(4-chloro-3-fluorophenyl)-1H-1,2,3-triazol-1-yl)-2-(hydroxymethyl)-5-methoxytetrahydro-2H-pyran-3-ol] are 310 nM and 1.1 µM.
For the molecule `CO[C@@H]1[C@@H](n2cc(-c3ccc(F)c(F)c3F)nn2)[C@@H](O)[C@@H](CO)O[C@@H]1CC1=NOC2(CCCCC2)C1` [Example 1.13, (2R,3R,4S,5R,6R)-6-((1-oxa-2-azaspiro[4.5]dec-2-en-3-yl)methyl)-2-(hydroxymethyl)-5-methoxy-4-(4-(2,3,4-trifluorophenyl)-1H-1,2,3-triazol-1-yl)tetrahydro-2H-pyran-3-ol], the IC50 is 140 nM at human Gal-3 (hGal-3) and 0.52 µM on human Gal-1 (hGal-1).
The corresponding values for `CO[C@@H]1[C@@H](n2cc(-c3ccc(C)c(F)c3F)nn2)[C@@H](O)[C@@H](CO)O[C@@H]1CC1=NOC2(CCCCC2)C1` [Example 1.14, (2R,3R,4S,5R,6R)-6-((1-oxa-2-azaspiro[4.5]dec-2-en-3-yl)methyl)-4-(4-(2,3-difluoro-4-methylphenyl)-1H-1,2,3-triazol-1-yl)-2-(hydroxymethyl)-5-methoxytetrahydro-2H-pyran-3-ol] are 78 nM and 2.1 µM.
Consider `CO[C@@H]1[C@@H](n2cc(-c3cc(F)c(F)c(F)c3)nn2)[C@@H](O)[C@@H](CO)O[C@@H]1CC1=NO[C@]2(CC[C@H](NC(=O)OC(C)(C)C)CC2)C1` [Example 1.15, tert-butyl ((5r,8R)-3-(((2R,3R,4S,5R,6R)-5-hydroxy-6-(hydroxymethyl)-3-methoxy-4-(4-(3,4,5-trifluorophenyl)-1H-1,2,3-triazol-1-yl)tetrahydro-2H-pyran-2-yl)methyl)-1-oxa-2-azaspiro[4.5]dec-2-en-8-yl)carbamate], for which the half-maximal inhibitory concentration (IC50) on human Gal-3 (hGal-3) was determined as 35 nM; at human Gal-1 (hGal-1) it was 1.1 µM.
As to `CO[C@@H]1[C@@H](n2cc(-c3cc(F)c(F)c(F)c3)nn2)[C@@H](O)[C@@H](CO)O[C@@H]1CC1=NO[C@]2(CC[C@@H](NC(=O)OC(C)(C)C)CC2)C1` [Example 1.16, tert-butyl ((5s,8S)-3-(((2R,3R,4S,5R,6R)-5-hydroxy-6-(hydroxymethyl)-3-methoxy-4-(4-(3,4,5-trifluorophenyl)-1H-1,2,3-triazol-1-yl)tetrahydro-2H-pyran-2-yl)methyl)-1-oxa-2-azaspiro[4.5]dec-2-en-8-yl)carbamate], the 50% inhibitory concentration (IC50) on human Gal-3 (hGal-3) was 340 nM; on human Gal-1 (hGal-1), 2.3 µM.
As to `CO[C@@H]1[C@@H](n2cc(-c3ccc(Br)c(F)c3F)nn2)[C@@H](O)[C@@H](CO)O[C@@H]1CC1=NOC2(CCCCC2)C1` [Example 1.17, (2R,3R,4S,5R,6R)-6-((1-oxa-2-azaspiro[4.5]dec-2-en-3-yl)methyl)-4-(4-(4-bromo-2,3-difluorophenyl)-1H-1,2,3-triazol-1-yl)-2-(hydroxymethyl)-5-methoxytetrahydro-2H-pyran-3-ol], the IC50 at human Gal-3 (hGal-3) stood at 160 nM; at human Gal-1 (hGal-1), 6 µM.
As for `CO[C@@H]1[C@@H](n2cc(-c3cc(F)c(Cl)c(F)c3)nn2)[C@@H](O)[C@@H](CO)O[C@@H]1CC1=NOC2(CCCCC2)C1` [Example 1.18, (2R,3R,4S,5R,6R)-6-((1-oxa-2-azaspiro[4.5]dec-2-en-3-yl)methyl)-4-(4-(4-chloro-3,5-difluorophenyl)-1H-1,2,3-triazol-1-yl)-2-(hydroxymethyl)-5-methoxytetrahydro-2H-pyran-3-ol], the half-maximal inhibitory concentration (IC50) was found to be 180 nM on human Gal-3 (hGal-3) and 10.3 µM on human Gal-1 (hGal-1).
For `CO[C@@H]1[C@@H](n2cc(-c3cc(F)cc(Cl)c3)nn2)[C@@H](O)[C@@H](CO)O[C@@H]1CC1=NOC2(CCCCC2)C1` [Example 1.19, (2R,3R,4S,5R,6R)-6-((1-oxa-2-azaspiro[4.5]dec-2-en-3-yl)methyl)-4-(4-(3-chloro-5-fluorophenyl)-1H-1,2,3-triazol-1-yl)-2-(hydroxymethyl)-5-methoxytetrahydro-2H-pyran-3-ol], the 50% inhibitory concentration (IC50) on human Gal-3 (hGal-3) is 680 nM; on human Gal-1 (hGal-1) it was 4.2 µM.
In the case of `CO[C@@H]1[C@@H](n2cc(-c3ccc(C)c(F)c3)nn2)[C@@H](O)[C@@H](CO)O[C@@H]1CC1=NOC2(CCCCC2)C1` [Example 1.20, (2R,3R,4S,5R,6R)-6-((1-oxa-2-azaspiro[4.5]dec-2-en-3-yl)methyl)-4-(4-(3-fluoro-4-methylphenyl)-1H-1,2,3-triazol-1-yl)-2-(hydroxymethyl)-5-methoxytetrahydro-2H-pyran-3-ol], the IC50 on human Gal-3 (hGal-3) came out at 120 nM; at human Gal-1 (hGal-1), 5.3 µM.
Regarding `CO[C@@H]1[C@@H](n2cc(-c3cc(F)c(C)c(F)c3)nn2)[C@@H](O)[C@@H](CO)O[C@@H]1CC1=NOC2(CCCCC2)C1` [Example 1.21, (2R,3R,4S,5R,6R)-6-((1-oxa-2-azaspiro[4.5]dec-2-en-3-yl)methyl)-4-(4-(3,5-difluoro-4-methylphenyl)-1H-1,2,3-triazol-1-yl)-2-(hydroxymethyl)-5-methoxytetrahydro-2H-pyran-3-ol], the 50% inhibitory concentration (IC50) is 110 nM on human Gal-3 (hGal-3) and 11.4 µM at human Gal-1 (hGal-1).
Consider `CO[C@@H]1[C@@H](n2cc(-c3ccc(Cl)c(F)c3F)nn2)[C@@H](O)[C@@H](CO)O[C@@H]1CC1=NOC2(CCCCC2)C1` [Example 1.22, (2R,3R,4S,5R,6R)-6-((1-oxa-2-azaspiro[4.5]dec-2-en-3-yl)methyl)-4-(4-(4-chloro-2,3-difluorophenyl)-1H-1,2,3-triazol-1-yl)-2-(hydroxymethyl)-5-methoxytetrahydro-2H-pyran-3-ol], for which the results for the half-inhibitory concentration (IC50) at human Gal-3 (hGal-3) and on human Gal-1 (hGal-1) were 76 nM and 3.7 µM, respectively.
Take `CO[C@@H]1[C@@H](n2cc(-c3cc(F)c(F)c(F)c3)nn2)[C@@H](O)[C@@H](CO)O[C@@H]1CC1=NOC2(CCOCC2)C1` [Example 1.23, (2R,3R,4S,5R,6R)-6-((1,8-dioxa-2-azaspiro[4.5]dec-2-en-3-yl)methyl)-2-(hydroxymethyl)-5-methoxy-4-(4-(3,4,5-trifluorophenyl)-1H-1,2,3-triazol-1-yl)tetrahydro-2H-pyran-3-ol]: the IC50 amounted to 760 nM on human Gal-3 (hGal-3) and 3.5 µM on human Gal-1 (hGal-1).
The corresponding values for `CO[C@@H]1[C@@H](n2cc(-c3cc(F)c(F)c(F)c3)nn2)[C@@H](O)[C@@H](CO)O[C@@H]1CC1=NOC2(CCC(F)(F)CC2)C1` [Example 1.24, (2R,3R,4S,5R,6R)-6-((8,8-difluoro-1-oxa-2-azaspiro[4.5]dec-2-en-3-yl)methyl)-2-(hydroxymethyl)-5-methoxy-4-(4-(3,4,5-trifluorophenyl)-1H-1,2,3-triazol-1-yl)tetrahydro-2H-pyran-3-ol] are 450 nM and 4.9 µM.
